This assay has as its system L1210 leukemia ip in BDF1 mice, survival T/C. As to the kind of experiment: NCI In Vivo Anticancer Drug Screen. Data for tumor model L1210 Leukemia (intraperitoneal) in B6D2F1 (BDF1) mice. The note with it: endpoint: mean survival time, higher = longer survival. Put shortly:
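Survival endpoint. Drug-treated group vs vehicle group, expressed as T divided by C. Tumor passaged by transplantation.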

Setting [1] is: dose: 100.0 mg/kg/injection, schedule: Q01DX009 (ip), vehicle: saline with Tween-80.
[2] abbreviates: dose: 100.0 mg/kg/injection, schedule: Q01DX001 (ip), vehicle: saline.
Where [3] appears, read: dose: 200.0 mg/kg/injection, schedule: Q01DX001 (ip), vehicle: saline.
[4] abbreviates: dose: 400.0 mg/kg/injection, schedule: Q01DX001 (ip), vehicle: saline.
Where [5] appears, read: dose: 100.0 mg/kg/injection, schedule: Q04DX003 (ip), vehicle: saline.
Where [6] appears, read: dose: 200.0 mg/kg/injection, schedule: Q04DX003 (ip), vehicle: saline.
Where [7] appears, read: dose: 50.0 mg/kg/injection, schedule: Q01DX009 (ip), vehicle: saline.
[8] abbreviates: dose: 100.0 mg/kg/injection, schedule: Q01DX009 (ip), vehicle: saline.
Where [9] appears, read: dose: 100.0 mg/kg/injection, schedule: Q01DX001 (ip), vehicle: other.
Where [10] appears, read: dose: 100.0 mg/kg/injection, schedule: Q04DX003 (ip), vehicle: other.
[11] abbreviates: dose: 200.0 mg/kg/injection, schedule: Q01DX001 (ip), vehicle: other.
[12] abbreviates: dose: 200.0 mg/kg/injection, schedule: Q01DX009 (ip), vehicle: saline with Tween-80.
Setting [13] is: dose: 200.0 mg/kg/injection, schedule: Q04DX003 (ip), vehicle: other.
Where [14] appears, read: dose: 400.0 mg/kg/injection, schedule: Q01DX001 (ip), vehicle: other.
Setting [15] is: dose: 400.0 mg/kg/injection, schedule: Q01DX009 (ip), vehicle: saline with Tween-80.
[16] abbreviates: dose: 400.0 mg/kg/injection, schedule: Q04DX003 (ip), vehicle: other.
The mark [17] stands for this setting: dose: 25.0 mg/kg/injection, schedule: Q04DX003 (ip), vehicle: Klucel (hydroxypropylcellulose) (HPC).
Setting [18] is: dose: 50.0 mg/kg/injection, schedule: Q04DX003 (ip), vehicle: Klucel (hydroxypropylcellulose) (HPC).
[19] abbreviates: dose: 100.0 mg/kg/injection, schedule: Q04DX003 (ip), vehicle: Klucel (hydroxypropylcellulose) (HPC).
[20] abbreviates: dose: 200.0 mg/kg/injection, schedule: Q04DX003 (ip), vehicle: Klucel (hydroxypropylcellulose) (HPC).
Where [21] appears, read: dose: 400.0 mg/kg/injection, schedule: Q04DX003 (ip), vehicle: Klucel (hydroxypropylcellulose) (HPC).
Where [22] appears, read: dose: 300.0 mg/kg/injection, schedule: Q01DX009 (ip), vehicle: saline.
[23] abbreviates: dose: 100.0 mg/kg/injection, schedule: Q01DX009 (ip), vehicle: Klucel (hydroxypropylcellulose) (HPC).
[24] abbreviates: dose: 200.0 mg/kg/injection, schedule: Q01DX009 (ip), vehicle: Klucel (hydroxypropylcellulose) (HPC).
[25] abbreviates: dose: 400.0 mg/kg/injection, schedule: Q01DX009 (ip), vehicle: Klucel (hydroxypropylcellulose) (HPC).

Each structure is given as a SMILES string. Several values for one entry are separate records, joined by “and”; a condition that tells them apart may be missing. Equal entries are not always repeated. Toxic doses and inconclusive results are not listed.

In the case of `Cc1nc2c(O)cccn2c(=O)c1Cl`, the T/C is 92 % of control (dose: 25.0 mg/kg/injection, schedule: Q01DX009 (ip), vehicle: saline with Tween-80); 94 % of control (dose: 50.0 mg/kg/injection, schedule: Q01DX009 (ip), vehicle: saline with Tween-80); 97 % of control under setting [1].

For `c1cc2cc(c1)CCc1cccc(c1)CC2`, the T/C is 100 % of control under setting [2], 106 % of control under setting [3] and 94 % of control under setting [4].

With `CCN(CC)C(=O)C1C2CCC(C2)C1C(=O)N(CC)CC` (configuration not stated), the T/C reads like this: under setting [5], 100 % of control; under setting [6], 100 % of control; (dose: 400.0 mg/kg/injection, schedule: Q04DX003 (ip), vehicle: saline) 100 % of control.

Consider `CCC(C)n1ncc2c(N(C)C)ncnc21` (configuration not stated), for which the T/C runs as follows: under setting [7], 103 % of control; (dose: 50.0 mg/kg/injection, schedule: Q04DX003 (ip), vehicle: saline) 105 % of control; under setting [2], 98 % of control; under setting [8], 115 % of control; under setting [5], 105 % of control; under setting [3], 102 % of control. Moreover, the T/C under setting [6] is 107 % of control.

For the molecule `O=C(N/N=C/c1ccc2c(c1)OCO2)c1cccc2ccccc12`, the T/C was 97 % of control under setting [2], 86 % of control under setting [3] and 97 % of control under setting [4].

For `O=C(Nc1ccc(C(=O)Nc2cccc(C3=NCCN3)c2)cc1)Nc1ccc(C2=NCCN2)cc1`, the T/C reads like this: (dose: 15.0 mg/kg/injection, schedule: Q01DX Z (ip), vehicle: saline) 202 % of control; (dose: 30.0 mg/kg/injection, schedule: Q01DX Z (ip), vehicle: saline) 183 % of control; (dose: 60.0 mg/kg/injection, schedule: Q01DX Z (ip), vehicle: saline) 122 % of control; (dose: 120.0 mg/kg/injection, schedule: Q01DX Z (ip), vehicle: saline) 100 % of control.

In the case of `O=C(NO)N/N=C/c1ccccc1`, the T/C by setting is: under setting [9], 104 % of control; under setting [1], 104 % of control; under setting [10], 113 % of control; under setting [11], 98 % of control; under setting [12], 107 % of control; under setting [13], 95 % of control. The T/C was 98 % of control under setting [14], 110 % of control under setting [15] and 93 % of control under setting [16].

As to `Cc1ccc(CNC(=O)Cc2ccccc2)cc1C`, the T/C (dose: 100.0 mg/kg/injection, schedule: Q04DX002 (ip), vehicle: saline with Tween-80) was 100 % of control; the T/C (dose: 200.0 mg/kg/injection, schedule: Q04DX002 (ip), vehicle: saline with Tween-80) was 100 % of control; the T/C (dose: 400.0 mg/kg/injection, schedule: Q04DX002 (ip), vehicle: saline with Tween-80) is 110 % of control.

`COc1ccc(C[n+]2cccc(CNC(=O)COc3ccc(Cl)c(Cl)c3)c2)cc1`: the T/C was 98 % of control under setting [17]; 106 % of control under setting [18]; 107 % of control and 108 % of control under setting [19].

As for `Fc1c(Cl)c(Cl)c(Cl)c(Cl)c1Cl`, the T/C by setting is: (dose: 100.0 mg/kg/injection, schedule: Q01DX009 (ip), vehicle: saline sonified) 110 % of control; under setting [19], 96 % of control; (dose: 200.0 mg/kg/injection, schedule: Q01DX009 (ip), vehicle: saline sonified) 100 % of control; under setting [20], 97 % of control; (dose: 400.0 mg/kg/injection, schedule: Q01DX009 (ip), vehicle: saline sonified) 95 % of control; under setting [21], 96 % of control.

In the case of `CCCCCCCCC(C)NCCOC(=O)c1ccc([N+](=O)[O-])cc1` (configuration not stated), the T/C (dose: 75.0 mg/kg/injection, schedule: Q01DX001 (ip), vehicle: other) is 89 % of control and the T/C (dose: 150.0 mg/kg/injection, schedule: Q01DX001 (ip), vehicle: other) is 89 % of control.

For `C1CCC(=C(C2CCCC2)C2CCCC2)C1`, the T/C (dose: 75.0 mg/kg/injection, schedule: Q04DX002 (ip), vehicle: saline with Tween-80) is 105 % of control; the T/C (dose: 150.0 mg/kg/injection, schedule: Q04DX002 (ip), vehicle: saline with Tween-80) is 99 % of control; the T/C (dose: 300.0 mg/kg/injection, schedule: Q04DX002 (ip), vehicle: saline with Tween-80) was 99 % of control.

Regarding `C[Si](C)(C#CC1(O)CCCCC1)C(Cl)Cl`, the T/C was 102 % of control under setting [19], 101 % of control under setting [20] and 109 % of control under setting [21].

`NC(CCC(=O)NC(CSC(c1ccccc1)(c1ccccc1)c1ccccc1)C(=O)NCC(=O)O)C(=O)O` (configuration not stated): the T/C was 109 % of control (dose: 25.0 mg/kg/injection, schedule: Q01DX009 (ip), vehicle: saline); 104 % of control and 114 % of control under setting [7]; 107 % of control and 113 % of control under setting [8]; 124 % of control (dose: 200.0 mg/kg/injection, schedule: Q01DX009 (ip), vehicle: saline); 90 % of control under setting [22].

For the molecule `O=c1nccc[nH]1`, the T/C reads like this: under setting [5], 97 % of control; under setting [6], 97 % of control.

`CONS(=O)c1ccc([N+](=O)[O-])cc1` (configuration not stated): the T/C was 98 % of control under setting [23], 96 % of control under setting [24] and 100 % of control under setting [25].

As to `CC(C)c1ccc(N2P(=O)(N(C)C)N(c3ccc(C(C)C)cc3)P2(=O)N(C)C)cc1` (configuration not stated), the T/C is 95 % of control under setting [23], 92 % of control under setting [24] and 98 % of control under setting [25].

With `O=c1c2ccccc2ncn1CCCBr`, the T/C is 95 % of control (dose: 75.0 mg/kg/injection, schedule: Q01DX009 (ip), vehicle: saline); 103 % of control (dose: 150.0 mg/kg/injection, schedule: Q01DX009 (ip), vehicle: saline); 95 % of control under setting [22].

In the case of `Cc1cc(C(C)(C)C)c(Oc2ccc([N+](=O)[O-])cc2S(=O)(=O)O)c(C(C)(C)C)c1`, the T/C is 86 % of control under setting [1] and 88 % of control under setting [15].

Regarding `NC(N)=NCCCC(NC(=O)c1ccccc1)C(=O)O` (configuration not stated), the T/C is 104 % of control under setting [9]; 101 % of control (dose: 100.0 mg/kg/injection, schedule: Q01DX009 (ip), vehicle: other); 93 % of control under setting [10]; 100 % of control under setting [11]; 107 % of control (dose: 200.0 mg/kg/injection, schedule: Q01DX009 (ip), vehicle: other); 90 % of control under setting [13]. Further, the T/C is, setting by setting: under setting [14], 100 % of control; (dose: 400.0 mg/kg/injection, schedule: Q01DX009 (ip), vehicle: other) 100 % of control; under setting [16], 96 % of control.

As to `Nc1nc(O)c(N2C(=O)c3ccccc3C2=O)c(=O)[nH]1`, the T/C under setting [17] is 93 % of control, the T/C under setting [18] was 96 % of control and the T/C under setting [19] is 96 % of control.

Take `Cc1ccc2nc(-c3ccc(N)cc3)sc2c1`: the T/C under setting [1] is 96 % of control and the T/C under setting [12] was 91 % of control.

Take `COc1ccc(-c2nnc(-c3ccc(OC)c(Cl)c3)nn2)cc1Cl`: the T/C reads like this: under setting [1], 86 % of control; under setting [12], 86 % of control.

With `OCCNCc1ccc2ccccc2c1`, the T/C (dose: 150.0 mg/kg/injection, schedule: Q01DX015 (ip), vehicle: saline) was 90 % of control.
